Source: patent publication US20220395572A1, “C[…] THERAPY FOR TREATMENT OF DISC DEGENERATIVE DISEASE” (FIGENE, LLC, priority 2019, published 2022)

How the values were obtained:
Dermal fibroblasts = experiment: Growth factor production by dermal fibroblasts cultured 48 hours with CBD; format: cell-based; settings: various CBD concentrations, OPTI-MEM with 10% fetal calf serum
Description: In the groupings of three bars, the middle bar at each concentration represents 100,000 fibroblasts co-cultured with CBD at the indicated concentration. The right bar at each concentration represents 200,000 fibroblasts co-cultured with CBD at the indicated concentration. The left bar at each concentration represents 0 fibroblasts co-cultured with CBD at the indicated concentration;
In the groupings of three bars, the middle bar at each concentration represents 100,000 fibroblasts co-cultured with CBD at the indicated concentration. The right bar at each concentration represents 200,000 fibroblasts co-cultured with CBD at the indicated concentration. The left bar at each concentration represents 0 fibroblasts co-cultured with CBD at the indicated concentration.
Dermal fibroblasts were obtained from Allcells, Inc. and cultured for 48 hours in the indicated concentrations of CBD. […] Cultures were performed in OPTI-MEM media with 10% fetal calf serum.

[1] = system: in vitro formed nucleus pulposus tissues; settings: TNF-alpha 1-5 ng/mL, within 48 hours; cited from earlier work
[2] = system: CGRP expression in dorsal root ganglion (DRG) neurons innervating intervertebral discs; settings: cited from earlier work

## C=C(C)C1CCC(C)=CC1c1c(O)cc(CCCCC)cc1O (centres unmarked) [CBD, 2-[3-methyl-6-(1-methylethenyl)-2-cyclohexen-1-yl]-5-pentyl-1,3-benzenediol]
Dermal fibroblasts; FIG. 1
  IGF-1 production from fibroblasts: augmentation of IGF-1 was observed
Dermal fibroblasts; FIG. 2
  EGF-1 production from fibroblasts: augmentation of EGF-1 was observed

## TNF-alpha
[1]
  proteoglycan content of NP tissue relative to original: 25%

## etanercept
[2]; direct intradiscal application immediately after disc puncture, rats
  CGRP expression in DRG neurons innervating injured discs: suppressed CGRP expression
[2]; rat L4/5 disc puncture, direct intradiscal application, sham 21%±4%, puncture+saline 32%±7%
  proportion of CGRP-immunoreactive neurons among FluoroGold-labeled neurons: 23%±4%
